Measured values: patent US9617222B1, “Alkynyl indazole derivative and use thereof” (SENJU PHARMACEUTICAL CO., LTD., priority 2014, dated 2017)
Values after ≈ are worked out from the molar mass of the structure shown.

How the values were obtained:
[1] = test system: Human Retinal Microvascular Endothelial (hRMVE) Cells (hRMVEC); assay: Growth inhibition of hRMVE cells under VEGF stimulation (MTT assay); type: cell-based; settings: recombinant human VEGF, 48 hours, read-out: Cell Growth Inhibition Activity
[2] = Solubility test in 0.1% phosphate buffer solution (pH 7.0); type: physicochemical; settings: for solubility: aqueous buffer, thermodynamic from solid, 0.1% phosphate buffer solution (pH 7.0), room temperature overnight
Description: The mixture was subjected to ultrasonic irradiation for 30 seconds, and then shaken at room temperature overnight. The resulting suspension was left at rest at room temperature for 30 minutes, then filtered through a chromatography disc (0.20 μm) to prepare a sample solution. The sample solution and the standard solution were analyzed by LC-MS (product name: ACQUITY UPLC H-CLASS SYSTEM and Xevo TQ-S, produced by Nihon Waters K.K.), and a solubility was calculated from the obtained peak area value by an external standard method.

[3] = Drug penetrating test to retina/choroid after instillation; type: in vivo, rabbit (Japanese white rabbit); settings: rabbit, 2 hours after instillation; for concentration at 2 h: Japanese white, retina/choroid, topical, 50 μL/eye of 0.25% suspension, 0.25% suspension eye drop 50 μL/eye, average ± standard deviation; for drug penetrating concentration in the retina/choroid compared with compound B: p≦0.05
Description: For the compounds 8, 27 and B produced in Examples, drug penetrating concentrations to retina/choroid tissues after instillation were measured. […] In order to measure the drug concentration in the retina/choroid tissues, the eye drop was administered to rabbits (Japanese white rabbit) at 50 μL/eye, the rabbits were euthanized 2 hours after instillation, and the eyeballs were excised. The excised eyeballs were frozen with liquid nitrogen, split into two parts along the equatorial plane, and then the retina/choroid tissues were sampled from the posterior eye segment. In order to extract the compound from the sampled tissues, the tissues were finely cut in methanol to prepare a lysate, and subsequently the lysate was centrifuged to collect the supernatant. To the extracted solution of the compound from the supernatant, an equivalent amount of ultrapure water was added, and the solution was filtered through a membrane filter (0.22 μm), and the filtrate was designated as a final measurement solution. The drug concentration in the filtrate was analyzed by liquid chromatography mass spectrometry (LC/MS/MS), and the compound concentration in the retina/choroid tissues was calculated from the peak area value obtained by an external standard method. Analysis conditions of LC/MS/MS are as below. For the compound concentration in the retina/choroid, null hypothesis test was carried out using JMP (registered trademark) (SAS Institute Inc.), the outlier was excluded, and then the average value±standard deviation was used.

solubility in aqueous solution (in words) ([2]; aqueous solution) | photostability in solution (in words) | Compound | IC50 [1] | solubility [2] | concentration at 2 h [3] | drug penetrating concentration in the retina/choroid compared with compound B [3]
– | – | CNC(=O)c1ccccc1Sc1ccc2c(C#Cc3ccc(NCCOCCOCCOC)cc3)n[nH]c2c1 [Compound 27, 2-[(3-{[4-({2-[2-(2-methoxyethoxy)ethoxy]ethyl}amino)phenyl]ethynyl}-1H-indazol-6-yl)thio]-N-methylbenzamide] | 1.2 nM | 0.48 µg/mL (≈ 0.881 µM) | 1.62 ± 0.68 ng/g | significantly higher
low | poor photostability | CNC(=O)c1ccccc1Sc1ccc2c(/C=C/c3ccccn3)n[nH]c2c1 [Compound A, 6-[2-(methylcarbamoyl)phenylsulfanyl]-3-E-[2-(pyridine-2-yl)ethenyl]indazole, reference compound] | – | 0.045 µg/mL (≈ 0.116 µM) | – | –
– | – | CNC(=O)c1ccccc1Sc1ccc2c(C#Cc3ccc(NC(=O)OCCOCCOCCOC)cc3)n[nH]c2c1 [Compound 16, 2-[2-(2-methoxyethoxy)ethoxy]ethyl {4-[(6-{[2-(methylcarbamoyl)phenyl]thio}-1H-indazol-3-yl)ethynyl]phenyl}carbamate] | 1.2 nM | 0.27 µg/mL (≈ 0.459 µM) | – | –
– | – | CNC(=O)c1ccccc1Sc1ccc2c(C#Cc3ccc(NC(=O)NCCOCCOCCO)cc3)n[nH]c2c1 [Compound 42, 2-[(3-{[4-(3-{2-[2-(2-hydroxyethoxy)ethoxy]ethyl}ureido)phenyl]ethynyl}-1H-indazol-6-yl)thio]-N-methylbenzamide] | 1.6 nM | 3.1 µg/mL (≈ 5.4 µM) | – | –
– | – | CNC(=O)c1ccccc1Sc1ccc2c(C#Cc3ccc(NC(=O)NCCOCCOCCNC(C)=O)cc3)n[nH]c2c1 [Compound 45, 2-[(3-{[4-(3-{2-[2-(2-acetamideethoxy)ethoxy]ethyl}ureido)phenyl]ethynyl}-1H-indazol-6-yl)thio]-N-methylbenzamide] | 2.5 nM | 0.56 µg/mL (≈ 0.911 µM) | – | –
– | – | CNC(=O)c1ccccc1Sc1ccc2c(C#Cc3ccc(NC(=O)NCCOCCOCCOC)cn3)n[nH]c2c1 [Compound 35, 2-[(3-{[5-(3-{2-[2-(2-methoxyethoxy)ethoxy]ethyl}ureido)pyridine-2-yl]ethynyl}-1H-indazol-6-yl)thio]-N-methylbenzamide] | 3.2 nM | 4.4 µg/mL (≈ 7.47 µM) | – | –
– | – | CNC(=O)c1ccccc1Sc1ccc2c(C#Cc3ccc(NC(=O)NCCOCCOCCOC)cc3)n[nH]c2c1 [Compound 8, 2-[(3-{[4-(3-{2-[2-(2-methoxyethoxy)ethoxy]ethyl}ureido)phenyl]ethynyl}-1H-indazol-6-yl)thio]-N-methylbenzamide] | 1.2 nM | 1 µg/mL (≈ 1.7 µM) | 2.6 ± 1.04 ng/g | significantly higher
– | – | CNC(=O)c1ccccc1Sc1ccc2c(C#Cc3ccc(NC(=O)NCCOCCOCCN(C)C)cc3)n[nH]c2c1 [Compound 44, 2-{[3-({4-[3-(2-{2-[2-(dimethylamino)ethoxy]ethoxy}ethyl)ureido]phenyl}ethynyl)-1H-indazol-6-yl]thio}-N-methylbenzamide] | 3 nM | 7.6 µg/mL (≈ 12.7 µM) | – | –
– | – | CNC(=O)c1ccccc1Sc1ccc2c(C#Cc3ccccn3)n[nH]c2c1 [Compound B, 6-[2-(methylcarbamoyl)phenylsulfanyl]-3-[2-(pyridine-2-yl)ethynyl]indazole, reference compound] | 1.6 nM | 0.084 µg/mL (≈ 0.218 µM) | 0.51 ± 0.1 ng/g | –
